Results: publication PMC9225715, “Development of PD3 and PD3-B for PDEδ inhibition to modulate KRAS activity” (Journal of Enzyme Inhibition and Medicinal Chemistry, 2022)
Where two headings read alike, the source gives them in different places.

Legend:
[1] = test system: PANC-1 cells; test: Immunofluorescence staining of RAS localisation; type: cell-based, human; settings: 18 h, anti-pan RAS antibody, PD3 10 µM, deltarasin 2, 5, 10 µM
Source text: Finally, we investigated whether PD3 changes KRAS localisation by inhibiting the interaction of KRAS with PDEδ in human pancreatic cancer cells. PDEδ binds the farnesylated RAS proteins and stabilises them[19]. Therefore, PDEδ activity leads to the accumulation of RAS at the plasma membrane (PM); conversely, downmodulation of PDEδ enhances RAS diffusion in the cytoplasm. To confirm the effect of PD3 on the relocalization of RAS, we carried out immunofluorescence staining of PANC-1 cells with an anti-RAS antibody (Figure 6). […] Conversely, in the DMSO-treated control group, RAS was mainly localised in the PM of PANC-1 cells. […] It is supposed that PD3 can induce changes in RAS localisation from the plasma membrane by interrupting the protein–protein interaction of KRAS-PDEδ.
Figure 6. Immunofluorescence of PANC-1 cells with an anti-Pan-RAS antibody (red). DMSO was used as a negative control, and deltarasin was used as a positive control. Ex: 633 nm, Em: ≥638 nm. The scale bar represents 20 µm.
PANC-1 cells were seeded with cover slip in a 6-well cell culture plate (SPL life Science, Gyeonggi-do, Republic of Korea) and incubated for 24 h under 37 °C and 5% CO2 prior to the experiment. […] The fluorescence images were detected by confocal microscope (TCS-SP8 confocal laser scanning microscope, Leica, Germany). Fluorescence signal was obtained by excitation at 633 nm and emission at ≥638 nm.

[2] = target: T1, PDEδ (Homo sapiens, UniProt O43924); test: Fluorescence polarisation (FP)-based binding assay
T1 construct: made in house; host or cells: E. coli BL21(DE3)
Description: To evaluate the binding affinities of PDs to PDEδ, we also carried out a fluorescence polarisation (FP)-based binding assay after incubation of PDs with PDEδ. […] In the presence of 0.5 µM PD compounds, the polarisation value (mP value) increased following treatment with purified PDEδ in a dose-dependent manner until treatment with excess PDEδ induced saturation of binding. Among the tested compounds, 8 compounds were selected for further evaluation and SAR analysis. The binding curves for the selected 8 compounds are shown with their Kd values in Supplemental Figure S3.
Figure 3. Binding affinities of PDs measured by fluorescence polarisation. (A) Representative binding curve of PDs (PD3) titrated with PDEδ. The FP value was measured in PBS buffer (pH 7.2) containing 8 concentrations (0, 0.5, 1, 2, 4, 8, 16 and 32 μM) of PDEδ mixed with 0.5 μM PDs. Ex: 440 nm, Em: 526 nm; (B) Kd value and half-life of each compound; (C, D) Kinetic trace of PD3 and PD7 in the competition assay. PD3 was shown as a compound with the longest retention time (slow dissociation), whereas PD7 was shown as a compound with the shortest retention time (fast dissociation). The half-life was obtained by a competition binding assay using excess deltarasin. The optimal concentration of PDEδ for the competition assay was determined using the Kd value and PD concentration (0.5 μM) for making more than 68% of the binding complex. Ex: 430 nm, Em: 520 nm. TEXT PRINTED IN THE PICTURE: (A) PD3: Best-fit values Bmax: 261.7; Best-fit values Kd: 0.4991; Std. Error Bmax: 17.98; Std. […] Error Bmax 17.98 (last digit 8 or 6) and Std. Error Kd 0.1956 (5 and 6 not certain) / Panels C and D: k and half-life are printed without a label of their own; assigned to PD3 and PD7 from the panel legends (PDEδ+PD3+Del, PDEδ+PD7+Del)
PDEδ was diluted to make a series of two-fold dilutions with a starting concentration of 32 µM. The diluted solution was mixed with PBS buffer [137 mM NaCl, 2.7 mM KCl, 10 mM Na2HPO4, 2 mM KH2PO4 (pH 7.2)] and then the mixture was loaded on a 96 well black plate (SPL life Science, Gyeonggi-do, Republic of Korea). Compounds were transferred to the wells of assay plate and the final concentration of compounds was fixed to 0.5 µM. After the addition of the compound, the assay plates were incubated for 2 h at 4 °C. FP values were detected by SpectraMax M5 microplate reader (Molecular Devices, San Jose, CA) at the maximum absorption and emission wavelengths of PD compounds in assay buffer. Kd values were determined by previously reported method.

T1 sequence (O43924 whole entry): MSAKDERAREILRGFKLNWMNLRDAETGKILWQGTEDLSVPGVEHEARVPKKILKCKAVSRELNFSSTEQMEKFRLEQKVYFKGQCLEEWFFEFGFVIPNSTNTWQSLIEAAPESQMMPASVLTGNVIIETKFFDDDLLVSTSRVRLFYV

## Cc1ccc(-c2nc3ccccc3c3cc4ccccn4c23)cc1 [PD3, 6-(p-tolyl)indolizino[3,2-c]quinoline]
[1]
  RAS localisation at the plasma membrane (PM): red fluorescence was effectively reduced at the PM
[2]; 0.5 µM PD titrated with PDEδ, PBS pH 7.2, mean ± SD of three independent experiments, read-out: Kd value
  Kd: 0.491 ± 0.012 µM
[2]; representative binding curve, Figure 3(A) inset, read-out: Best-fit values Kd
  Kd: 0.499 µM
